Test results as given in ChEMBL document CHEMBL1129002, “Synthesis and biological evaluation of both enantiomers of L-761,000 as inhibitors of cyclooxygenase 1 and 2” (Bioorg Med Chem Lett, 1996).

Tests used:
[1] = Cmax in rat plasma; type: ADME, organism-based
Rattus norvegicus [2] = assay: Compound was evaluated in vivo for its activity in the rat paw edema assay.; type: functional
Rattus norvegicus [3] = species on record: Rattus norvegicus; assay: Clearance in rat plasma; type: functional, organism-based
Rattus norvegicus [4] = assay: Compound was evaluated in vivo for its activity in the rat pyresis assay.; type: functional
[5] = biological target: T1, Prostaglandin G/H synthase 1 (Rattus norvegicus, UniProt Q63921); assay: In vitro inhibition of Prostaglandin G/H synthase 1
T1 sequence (Q63921 whole entry): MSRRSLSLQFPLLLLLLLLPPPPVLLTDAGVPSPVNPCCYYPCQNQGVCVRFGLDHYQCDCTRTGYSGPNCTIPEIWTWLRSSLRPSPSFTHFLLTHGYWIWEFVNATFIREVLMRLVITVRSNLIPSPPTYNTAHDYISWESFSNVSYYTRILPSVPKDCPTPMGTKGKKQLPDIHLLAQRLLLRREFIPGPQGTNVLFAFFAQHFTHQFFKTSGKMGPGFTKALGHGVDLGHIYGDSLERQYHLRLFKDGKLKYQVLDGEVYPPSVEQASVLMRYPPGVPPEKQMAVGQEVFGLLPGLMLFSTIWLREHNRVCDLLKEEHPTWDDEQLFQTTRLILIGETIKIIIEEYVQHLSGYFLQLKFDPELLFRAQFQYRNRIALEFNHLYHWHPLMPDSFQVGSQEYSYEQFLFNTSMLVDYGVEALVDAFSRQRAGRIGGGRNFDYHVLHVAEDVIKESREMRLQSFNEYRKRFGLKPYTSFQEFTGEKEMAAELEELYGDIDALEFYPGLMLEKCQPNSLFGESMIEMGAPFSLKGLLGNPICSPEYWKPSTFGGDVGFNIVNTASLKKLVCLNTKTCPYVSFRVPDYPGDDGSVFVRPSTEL

[6] = biological target: T2, Prostaglandin G/H synthase 2 (Rattus norvegicus, UniProt P35355); assay: In vitro inhibition of Prostaglandin G/H synthase 2
T2 sequence (P35355 whole entry): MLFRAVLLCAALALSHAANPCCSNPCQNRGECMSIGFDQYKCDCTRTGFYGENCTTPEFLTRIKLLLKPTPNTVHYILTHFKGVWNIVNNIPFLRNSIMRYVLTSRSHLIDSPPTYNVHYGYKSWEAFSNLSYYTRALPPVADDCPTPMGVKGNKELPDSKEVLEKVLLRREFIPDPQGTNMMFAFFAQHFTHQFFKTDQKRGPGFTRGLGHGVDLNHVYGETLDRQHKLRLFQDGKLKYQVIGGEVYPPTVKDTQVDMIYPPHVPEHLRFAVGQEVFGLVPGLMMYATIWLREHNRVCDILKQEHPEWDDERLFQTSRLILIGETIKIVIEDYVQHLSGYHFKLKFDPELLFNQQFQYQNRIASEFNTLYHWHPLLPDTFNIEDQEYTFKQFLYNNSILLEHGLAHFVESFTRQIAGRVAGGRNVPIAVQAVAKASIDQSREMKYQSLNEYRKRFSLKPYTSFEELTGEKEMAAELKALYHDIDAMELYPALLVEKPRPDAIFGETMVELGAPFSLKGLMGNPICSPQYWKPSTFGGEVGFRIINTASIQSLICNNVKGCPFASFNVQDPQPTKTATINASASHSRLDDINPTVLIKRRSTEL

`COc1ccc2c(c1)c(C[C@@H](C)CC(=O)O)c(C)n2Cc1ccc(Br)cc1` showed a Cmax [1] of 24.3 µM, an ED30 (Rattus norvegicus [2]) of 0.4 mg/kg and a CL (mL.min-1.kg-1) (Rattus norvegicus [3]) of 2.8. For the same compound, the ED50 (Rattus norvegicus [4]) was 1.9 mg/kg, the IC50 [5] was over 10 µM and the IC50 [6] was 0.06 µM.

Compound `COc1ccc2c(c1)c(CC(=O)O)c(C)n2C(=O)c1ccc(Cl)cc1` [INDOMETHACIN] has an ED30 (Rattus norvegicus [2]) of 0.4 mg/kg and an ED50 (Rattus norvegicus [4]) of 1 mg/kg.

Work on `COc1ccc2c(c1)c(CC(C)CC(=O)O)c(C)n2Cc1ccc(Br)cc1` (configuration not stated) yielded an ED30 (Rattus norvegicus [2]) of 0.4 mg/kg, a CL (mL.min-1.kg-1) (Rattus norvegicus [3]) of 5.7 and an IC50 [5] of over 10 µM. It also gave an IC50 [6] of 0.05 µM.

For `COc1ccc2c(c1)c(C[C@H](C)CC(=O)O)c(C)n2Cc1ccc(Br)cc1`, the Cmax [1] was 14.4 µM, the ED30 (Rattus norvegicus [2]) was over 3 mg/kg and the CL (mL.min-1.kg-1) (Rattus norvegicus [3]) was 21. It also gave an IC50 [5] of over 10 µM and an IC50 [6] of 0.02 µM.
